IC50 data for 28 compounds are collected here from patent publication US20200261421A1, “HETEROCYCLIC COMPOUNDS AS HIV PROTEASE INHIBITORS” (Merck Sharp & Dohme Corp., priority 2016, published 2020).

This assay concerns the target T1, wild-type HIV-1 protease (Human immunodeficiency virus type 1 group M subtype B, UniProt P04585).
T1 construct: Escherichia coli expressed wild-type HIV-1 protease protein; made in house; host or cells: Escherichia coli
The assay can be described thus: Assay for Inhibition of Microbial Expressed HIV Protease. The settings on record: Escherichia coli expressed wild-type HIV-1 protease, peptide substrate cleavage; mean of at least two independent experiments. The class given is biochemical. Here is the method:
Inhibition of Escherichia coli expressed wild-type HIV-1 protease protein was carried out with a peptide substrate [Val-Ser-Gln-Asn-Wnaphtyl)Ala-Pro-Ile-Val]. The inhibitor compound was preincubated with HIV-1 protease enzyme in assay buffer (50 mM sodium acetate, pH 5.5, 100 mM NaCl, and 0.1% BSA) for 30 minutes at room temperature. Peptide substrate was added to 400 μM in a total volume of 20 μL containing 20 pM HIV-1 protease (final) after which the reaction was incubated for 1 hour at 30° C. The reaction was quenched by the addition of formic acid and HIV protease inhibitor indinavir to 0.012% and 150 nM final concentrations, respectively. Product formation was determined after separation of product and substrate on a ZORBAX Eclipse XDB-C18 column (Aligent Technologies, Santa Clara, Calif., USA) connected to an API 4000™ mass spectrometer (AB Sciex, Pte. Ltd., Concord Ontario, Canada) with multiple reaction monitoring (transitions were 644.5/428.9 and 615.4/422.2 (M1/M3) for product and indinavir respectively). The extent of inhibition of the reaction was determined from the peak area of the products. Analysis of the products, independently synthesized, provided quantitation standards and confirmation of the product composition. […] Ic50's refer to the 50% inhibition of the cleavage of a peptide substrate by hiv protease.
Data shown in the table reflects the mean of at least two independent experiments.

One may read the IC50 as the concentration at which inhibition is half-maximal. A low value points to greater potency in that assay. On to `N=C1NC(c2ccccc2)(c2ccccc2)C(=O)N1Cc1ccc(C(F)(F)F)c(C(=O)NCc2ccc(OC(F)F)cc2)c1` [Example 12, N-[4-(difluoromethoxy)benzyl]-5-[(2-imino-5-oxo-4,4-diphenylimidazolidin-1-yl)methyl]-2-(trifluoromethyl)benzamide], for which the half-maximal inhibitory concentration (IC50) came out at 94.1 nM. To `CN(C)C(=O)c1cccc(CN2C(=N)NC(c3ccccc3)(c3cccc(-c4ccccc4)c3)C2=O)c1` (stereo not shown) [Example 63, 3-[(4-biphenyl-3-yl-2-imino-5-oxo-4-phenylimidazolidin-1-yl)methyl]-N,N-dimethylbenzamide] belongs 83.4 nM. The result for `N#Cc1ccc(CNC(=O)c2cccc(CN3C(=N)NC(c4ccc(F)cc4)(c4ccc(F)cc4)C3=O)c2)cc1` [Example 67, 3-{[4,4-bis(4-fluorophenyl)-2-imino-5-oxoimidazolidin-1-yl]methyl}-N-(4-cyanobenzyl)benzamide] reads 95.2 nM; that for `CC(C)CCC1(c2ccccc2)NC(=N)N(Cc2cccc(C(=O)N(C)Cc3ccc(F)cc3)c2)C1=O` (stereo not shown) [Example 17, N-(4-fluorobenzyl)-3-{[2-imino-4-(3-methylbutyl)-5-oxo-4-phenylimidazolidin-1-yl]methyl}-N-methylbenzamide], 10.3 nM. To `CN(Cc1ccc(C#N)cc1)C(=O)c1cc(CN2C(=N)NC(c3ccccc3)(c3ccccc3)C2=O)ccc1C(F)(F)F` [Example 2, N-(4-cyanobenzyl)-5-[(2-imino-5-oxo-4,4-diphenylimidazolidin-1-yl)methyl]-N-methyl-2-(trifluoromethyl)benzamide] belongs 18.2 nM; to `CN(Cc1ccc(Cl)cc1)C(=O)c1cccc(CN2C(=N)NC(c3ccc(F)cc3)(c3cccc(C#N)c3)C2=O)c1` (stereo not shown) [Example 37, N-(4-chlorobenzyl)-3-{[4-(3-cyanophenyl)-4-(4-fluorophenyl)-2-imino-5-oxoimidazolidin-1-yl]methyl}-N-methylbenzamide], 23.5 nM. In turn, `CC(C)CC1(c2ccccc2)NC(=N)N(Cc2ccc(Cl)c(C(=O)NCc3cnccn3)c2)C1=O` (stereo not shown) [Example 75, 2-chloro-5-{[2-imino-4-(2-methylpropyl)-5-oxo-4-phenylimidazolidin-1-yl]methyl}-N-(pyrazin-2-ylmethyl)benzamide] had an IC50 of 31.3 nM.

Compound `CN(Cc1cccnc1)C(=O)c1cccc(CN2C(=N)NC(c3ccc(F)cc3)(c3ccc(F)cc3)C2=O)c1` [Example 57, 3-{[4,4-bis(4-fluorophenyl)-2-imino-5-oxoimidazolidin-1-yl]methyl}-N-methyl-N-(pyridin-3-ylmethyl)benzamide] displayed an IC50 of 58.9 nM. The result for `CCN(Cc1ccc(F)cc1)C(=O)c1cccc(CN2C(=N)NC(c3ccc(F)cc3)(c3ccc(F)cc3)C2=O)c1` [Example 42, 3-{[4,4-bis(4-fluorophenyl)-2-imino-5-oxoimidazolidin-1-yl]methyl}-N-ethyl-N-(4-fluorobenzyl)benzamide] reads 28.6 nM; that for `CC(C)C[C@@]1(c2ccccc2)NC(=N)N([C@H](C)c2cccc(C(=O)N(C)Cc3ccc(F)cc3)c2)C1=O` [Example 55, N-(4-fluorobenzyl)-3-((R)-1-((S)-2-imino-4-isobutyl-5-oxo-4-phenylimidazolidin-1-yl)ethyl)-N-methylbenzamide], 52.9 nM; that for `CCCC1(c2ccccc2)NC(=N)N(Cc2cccc(C(=O)N(C)Cc3ccc(Cl)cn3)c2)C1=O` (stereo not shown) [Example 47, N-[(5-chloropyridin-2-yl)methyl]-3-[(2-imino-5-oxo-4-phenyl-4-propylimidazolidin-1-yl)methyl]-N-methylbenzamide], 33.3 nM. To `CC(C)CCC1(c2ccccc2)NC(=N)N(Cc2cc(C(=O)N(C)Cc3ccc(C#N)cc3)ccn2)C1=O` (stereo not shown) [Example 88, N-(4-cyanobenzyl)-2-{[2-imino-4-(3-methylbutyl)-5-oxo-4-phenylimidazolidin-1-yl]methyl}-N-methylpyridine-4-carboxamide] belongs 17.1 nM; to `COc1ccc(CN2C(=N)NC(c3ccccc3)(c3ccccc3)C2=O)cc1C(=O)N(C)[C@H](C)c1ccccc1` [Example 77, 5-[(2-imino-5-oxo-4,4-diphenylimidazolidin-1-yl)methyl]-2-methoxy-N-methyl-N-[(1R)-1-phenylethyl]benzamide], 43.4 nM; to `CN(Cc1ccc(F)cc1)C(=O)c1csc(CN2C(=N)NC(c3ccccc3)(c3ccccc3)C2=O)n1` [Example 95, N-(4-fluorobenzyl)-2-[(2-imino-5-oxo-4,4-diphenylimidazolidin-1-yl)methyl]-N-methyl-1,3-thiazole-4-carboxamide], 30 nM. The result for `CN(Cc1ccccc1Cl)C(=O)c1cccc(CN2C(=N)NC(c3ccc(F)cc3)(c3ccc(F)cc3)C2=O)c1` [Example 66, 3-{[4,4-bis(4-fluorophenyl)-2-imino-5-oxoimidazolidin-1-yl]methyl}-N-(2-chlorobenzyl)-N-methylbenzamide] reads 90.5 nM. For the compound `CCCC1(c2ccccc2)NC(=N)N(Cc2cccc(C(=O)N(C)Cc3ccc(F)cc3)c2)C1=O` (stereo not shown) [Example 43, N-(4-fluorobenzyl)-3-[(2-imino-5-oxo-4-phenyl-4-propylimidazolidin-1-yl)methyl]-N-methylbenzamide], the IC50 turned out to be 28.7 nM. In turn, `CC(C)CC1(c2ccccc2)NC(=N)N(Cc2ccc(Cl)c(C(=O)NCc3ccc(C#N)cc3)c2)C1=O` (stereo not shown) [Example 71, 2-chloro-N-(4-cyanobenzyl)-5-{[2-imino-4-(2-methylpropyl)-5-oxo-4-phenylimidazolidin-1-yl]methyl}benzamide] registered an IC50 of 8.19 nM.

The compound `CC(C)CCC1(c2ccccc2)NC(=N)N(Cc2ccc(C(F)(F)F)c(C(=O)NCc3ncccn3)c2)C1=O` (stereo not shown) [Example 8, 5-{[2-imino-4-(3-methylbutyl)-5-oxo-4-phenylimidazolidin-1-yl]methyl}-N-(pyrimidin-2-ylmethyl)-2-(trifluoromethyl)benzamide] returned an IC50 of 54.6 nM.

The compound `CN(Cc1ccc(Cl)cc1)C(=O)c1cccc(CN2C(=N)NC(c3ccc(F)cc3)(c3cccc(C(N)=O)c3)C2=O)c1` (stereo not shown) [Example 19, 3-{[4-(3-carbamoylphenyl)-4-(4-fluorophenyl)-2-imino-5-oxoimidazolidin-1-yl]methyl}-N-(4-chlorobenzyl)-N-methylbenzamide] showed an IC50 of 11.6 nM.

For `CN(Cc1ccc(F)cc1)C(=O)c1cccc(CN2C(=N)NC(c3ccccc3)(c3ccccc3)C2=O)c1` [Example 32, N-(4-fluorobenzyl)-3-[(2-imino-5-oxo-4,4-diphenylimidazolidin-1-yl)methyl]-N-methylbenzamide], the IC50 amounted to 19.3 nM. Turning to `CC(C)CC1(CC(C)C)NC(=N)N([C@H](C)c2cccc(C(=O)N(C)Cc3ccc(F)cc3)c2)C1=O` [Example 70, N-(4-fluorobenzyl)-3-{(1R)-1-[2-imino-4,4-bis(2-methylpropyl)-5_ oxoimidazolidin-1-yl]ethyl}-N-methylbenzamide], half-maximal inhibition (IC50) required 99.1 nM. To `COc1ccccc1CN(C)C(=O)c1cccc(CN2C(=N)NC(c3ccc(F)cc3)(c3ccc(F)cc3)C2=O)c1` [Example 61, 3-{[4,4-bis(4-fluorophenyl)-2-imino-5-oxoimidazolidin-1-yl]methyl}-N-(2-methoxybenzyl)-N-methylbenzamide] belongs 76.7 nM. In turn, `CC(C)CC1(c2cccc(F)c2)NC(=N)N(Cc2cccc(C(=O)N(C)Cc3ccc(C#N)cc3)c2)C1=O` (stereo not shown) [Example 69, N-(4-cyanobenzyl)-3-{[4-(3-fluorophenyl)-2-imino-4-(2-methylpropyl)-5-oxoimidazolidin-1-yl]methyl}-N-methylbenzamide] displayed an IC50 of 97.1 nM.

As to `CN(Cc1ccccc1S(C)(=O)=O)C(=O)c1cccc(CN2C(=N)NC(c3ccccc3)(c3ccccc3)C2=O)c1` [Example 23, 3-[(2-imino-5-oxo-4,4-diphenylimidazolidin-1-yl)methyl]-N-methyl-N-[2-(methylsulfonyl)-benzyl]benzamide], half-maximal inhibition (IC50) was put at 12.9 nM. The result for `CN(Cc1ccc(F)cc1)C(=O)c1csc(CN2C(=N)NC(c3ccccc3)(c3ccccc3)C2=O)c1` [Example 94, N-(4-fluorobenzyl)-5-[(2-imino-5-oxo-4,4-diphenylimidazolidin-1-yl)methyl]-N-methylthiophene-3-carboxamide] reads 8.9 nM.

`CN(Cc1ccc(C#N)cc1)C(=O)c1ccnc(CN2C(=N)NC(c3ccccc3)(c3ccccc3)C2=O)c1` [Example 85, N-(4-cyanobenzyl)-2-[(2-imino-5-oxo-4,4-diphenylimidazolidin-1-yl)methyl]-N-methylpyridine-4-carboxamide] displayed an IC50 of 5.4 nM. The result for `CN(Cc1ccc(Cl)cc1)C(=O)c1cccc(CN2C(=N)NC(c3ccccc3)(c3ccccc3)C2=O)c1` [Example 36, N-(4-chlorobenzyl)-3-[(2-imino-5-oxo-4,4-diphenylimidazolidin-1-yl)methyl]-N-methylbenzamide] reads 21.7 nM; that for `CN(Cc1ccc(Cl)cc1)C(=O)c1cccc(CN2C(=N)NC(c3ccc(F)cc3)(c3cccc(Br)c3)C2=O)c1` (stereo not shown) [Example 40, 3-{[4-(3-bromophenyl)-4-(4-fluorophenyl)-2-imino-5-oxoimidazolidin-1-yl]methyl}-N-(4-chlorobenzyl)-N-methylbenzamide], 25.9 nM.
